Assay results published in ChEMBL document CHEMBL1201862, “PubChem BioAssay data set” (2004).
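Each compound was tested at five concentrations against cells in 96-well plates for 48 hours. GI50 marks 50% less growth.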 The source made the active and inactive calls. Cut-off read from the data, not from the text of the source: active = GI50 up to about 1.1 µM and inactive = higher.

How the values were obtained:
Assay in all cases: NCI anticancer screen, dose series, 48 h
A498 = system: A498
A549 = system: A549
DLD-1 = system: DLD-1
HCT-116 = system: HCT-116
HOP-18 = system: HOP-18
LOX IMVI = system: LOX IMVI
M19-MEL = system: M19-MEL
NCI-H522 = system: NCI-H522
OVCAR-4 = system: OVCAR-4
RXF 631 = system: RXF 631
SK-MEL-5 = system: SK-MEL-5
SNB-78 = system: SNB-78
U-251 = system: U-251
UACC-257 = system: UACC-257
HOP-92 = system: HOP-92
KM12 = system: KM12
XF498 = system: XF498
BT-549 = system: BT-549
MDA-MB-231 = system: MDA-MB-231
MDA-N = system: MDA-N

Measured: GI50

COc1ccc(/C(Cl)=C(\C=O)c2ccc(Cl)cc2)cc1OC
inactive: A498 23.7 µM | A549 6.17 µM | DLD-1 5.12 µM | HCT-116 4.33 µM | HOP-18 19.1 µM | LOX IMVI 3.45 µM | M19-MEL 9.12 µM | NCI-H522 2.47 µM | OVCAR-4 5.12 µM | RXF 631 3.69 µM | SK-MEL-5 9.25 µM | SNB-78 5.82 µM | U-251 3.85 µM | UACC-257 6.55 µM

Cn1nc2ccc3nccc(NCCNCCCl)c3c2n1
inactive: A549 > 100 µM | DLD-1 > 100 µM | HCT-116 > 100 µM | HOP-92 > 100 µM | KM12 > 100 µM | LOX IMVI > 100 µM | M19-MEL > 100 µM | NCI-H522 > 100 µM | OVCAR-4 > 100 µM | XF498 > 100 µM

CN(Cc1cnc2c(N)nc(N)nc2n1)c1ccc(Cl)cc1
inactive: A498 31.7 µM | BT-549 > 100 µM | KM12 > 100 µM | MDA-MB-231 > 100 µM | MDA-N > 100 µM | SK-MEL-5 > 100 µM | U-251 > 100 µM | UACC-257 78.5 µM
